Data published in patent US20250206729A1, “DUAL RAF AND TUBULIN INHIBITORS AND METHODS OF USE THEREOF” (Deciphera Pharmaceuticals, LLC, priority 2023, published 2025).

Tests used:
MiaPaca-2 cells = assay: MiaPaca-2 cell proliferation assay; assay type: cell-based; conditions: Homo sapiens, MIA PaCa-2; 67-72 h incubation, resazurin; read-out: MiaPaca-2 (inhibition of cell proliferation, IC50)
[1] = molecular target: T1, C-Raf kinase (SEQ ID NO: 2) (Homo sapiens, UniProt P04049, Y340D/Y341D); assay: Biochemical assay for C-Raf (coupled pyruvate kinase/lactate dehydrogenase); conditions: 1 mM ATP; read-out: CRAF (inhibition of biochemical activity, IC50)
T1 construct: C-Raf residues 306-end; Y340D, Y341D with N-; GST (N); purchased Sigma

[2] = molecular target: T2, B-Raf kinase (SEQ ID NO: 1) (Homo sapiens, UniProt P15056); assay: Biochemical assay for B-Raf (coupled pyruvate kinase/lactate dehydrogenase); conditions: 1 mM ATP; read-out: BRAF (inhibition of biochemical activity, IC50)
T2 construct: GST (N); purchased Sigma

HCT-116 cells = assay: HCT-116 cell proliferation assay; assay type: cell-based; conditions: Homo sapiens, HCT-116; 67 to 72 h incubation, resazurin; read-out: HCT-116 (inhibition of cell proliferation, IC50)
Pa16c cells = assay: Pa16c cell proliferation assay; assay type: cell-based; conditions: 67 to 72 h incubation, resazurin; read-out: Pa16c (inhibition of cell proliferation, IC50)
HPAF-II cells = assay: HPAF-II cell proliferation assay; assay type: cell-based; conditions: Homo sapiens, HPAF-II; 115 to 120 h incubation, resazurin; read-out: HPAF-II (inhibition of cell proliferation, IC50)

T2 sequence (P15056 416-766): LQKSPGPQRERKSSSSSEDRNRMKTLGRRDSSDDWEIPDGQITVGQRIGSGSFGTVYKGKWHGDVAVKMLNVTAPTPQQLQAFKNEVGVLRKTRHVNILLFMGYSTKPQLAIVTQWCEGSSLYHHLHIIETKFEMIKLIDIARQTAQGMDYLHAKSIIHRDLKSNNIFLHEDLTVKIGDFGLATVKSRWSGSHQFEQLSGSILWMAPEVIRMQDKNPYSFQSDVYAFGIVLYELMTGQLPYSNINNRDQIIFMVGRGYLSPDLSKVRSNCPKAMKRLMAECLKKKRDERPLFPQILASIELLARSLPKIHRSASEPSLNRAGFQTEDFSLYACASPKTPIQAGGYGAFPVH
T1 sequence (P04049 307-648 Y340D/Y341D): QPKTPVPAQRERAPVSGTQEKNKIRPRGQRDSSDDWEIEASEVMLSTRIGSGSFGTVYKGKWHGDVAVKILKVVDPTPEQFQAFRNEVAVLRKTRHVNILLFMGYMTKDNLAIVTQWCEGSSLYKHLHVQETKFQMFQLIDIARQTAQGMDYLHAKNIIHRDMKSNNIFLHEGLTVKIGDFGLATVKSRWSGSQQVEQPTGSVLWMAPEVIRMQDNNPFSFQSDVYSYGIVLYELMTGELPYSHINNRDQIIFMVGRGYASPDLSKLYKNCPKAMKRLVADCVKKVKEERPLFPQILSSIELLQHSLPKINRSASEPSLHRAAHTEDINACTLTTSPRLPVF

SMILES	IC50 (MiaPaca-2 cells) [µM]	IC50 [1] [µM]	IC50 [2] [µM]	IC50 (HCT-116 cells) [µM]	IC50 (Pa16c cells) [µM]	IC50 (HPAF-II cells) [µM]
Cc1ccc(NC(=O)c2cnc(Br)nc2)cc1-c1cc(N[C@H](C)CO)nc(N2CCOCC2)c1 [Example 69]	1 to 10	1 to 10	1 to 10	1 to 10	1 to 10	1 to 10
Cc1ccc(NC(=O)c2cc(C(C)C)cnn2)cc1-c1cncc(N2CCOCC2)c1 [Example 79]	1 to 10	< 0.1	0.1 to 0.5	1 to 10	1 to 10	1 to 10
Cc1ccc(NC(=O)c2cc(C(C)C)cnn2)cc1-c1cccc(N2CCOCC2)c1 [Example 76]	1 to 10	< 0.1	0.1 to 0.5	1 to 10	1 to 10	1 to 10
Cc1ccc(NC(=O)c2cnc(Cl)nc2)cc1-c1cc(N[C@H](C)CO)nc(N2CCOCC2)c1 [Example 38]	1 to 10	0.5 to 1	1 to 10	1 to 10	1 to 10	1 to 10
Cc1ccc(NC(=O)c2cc(C3CC3)cnn2)cc1-c1cncc(N2CCOCC2)n1 [Example 55]	1 to 10	0.5 to 1	1 to 10	1 to 10	1 to 10	1 to 10
Cc1ccc(NC(=O)c2cc(C3CC3)cnn2)cc1-c1cccc(N2CCOCC2)c1 [Example 46]	0.5 to 1	< 0.1	0.1 to 0.5	0.1 to 0.5	0.1 to 0.5	0.1 to 0.5
Cc1ccc(NC(=O)c2cc(C3CC3)cnn2)cc1-c1nccc(N2CCOCC2)n1 [Example 52]	1 to 10	1 to 10	1 to 10	1 to 10	1 to 10	1 to 10

Continued, in another order:

IC50 (MiaPaca-2 cells) [µM]	IC50 [1] [µM]	IC50 [2] [µM]	IC50 (HCT-116 cells) [µM]	SMILES	IC50 (Pa16c cells) [µM]	IC50 (HPAF-II cells) [µM]
< 0.1	0.1 to 0.5	0.1 to 0.5	0.1 to 0.5	Cc1ccc(NC(=O)c2cc(C(F)(F)F)cnn2)cc1-c1cc(N[C@H](C)CO)nc(N2CCOCC2)n1 [Example 28]	< 0.1	< 0.1
0.1 to 0.5	0.1 to 0.5	0.1 to 0.5	0.1 to 0.5	Cc1ccc(NC(=O)c2cc(C3CC3)cnn2)cc1-c1cc(N[C@H](C)CO)nc(N2CCOCC2)n1 [Example 36]	0.5 to 1	0.1 to 0.5
0.1 to 0.5	0.5 to 1	1 to 10	1 to 10	Cc1ccc(NC(=O)c2ccc(C(F)(F)F)nn2)cc1-c1cc(N[C@H](C)CO)nc(N2CCOCC2)c1 [Example 5]	1 to 10	1 to 10
< 0.1	1 to 10	1 to 10	< 0.1	CNc1cc(-c2cc(NC(=O)c3cc(C(F)(F)F)cnn3)ccc2C)nc(N2C[C@H]3C[C@@H]2CO3)n1 [Example 94]	< 0.1	< 0.1
0.1 to 0.5	0.5 to 1	0.5 to 1	0.1 to 0.5	Cc1ccc(NC(=O)c2cc(C(F)(F)F)cnn2)cc1-c1cc(N2CCOCC2)ncn1 [Example 25]	1 to 10	0.1 to 0.5
< 0.1	< 0.1	< 0.1	< 0.1	Cc1ccc(NC(=O)c2cc(C3CC3)cnn2)cc1-c1cc(N[C@H](C)CO)nc(N2CCOCC2)c1 [Example 70]	< 0.1	< 0.1
0.1 to 0.5	< 0.1	< 0.1	0.5 to 1	Cc1ccc(NC(=O)c2cncc(Cl)c2)cc1-c1cc(N[C@H](C)CO)nc(N2CCOCC2)c1 [Example 16]	1 to 10	0.5 to 1
< 0.1	1 to 10	1 to 10	< 0.1	Cc1ccc(NC(=O)c2cc(C(F)(F)F)cnn2)cc1-c1ccnc(N2C[C@H]3C[C@@H]2CO3)c1 [Example 86]	< 0.1	< 0.1
< 0.1	< 0.1	0.1 to 0.5	< 0.1	Cc1ccc(NC(=O)c2cc(Cl)cnn2)cc1-c1cc(N[C@H](C)CO)nc(N2CCOCC2)c1 [Example 15]	0.1 to 0.5	0.1 to 0.5
